Assay results taken from the METLIN SMRT retention time set (Domingo-Almenara et al. 2019).

Assay: gradient 5% acetonitrile 3 min, to 50% in 2 min, to 85% in 15 min, held 3 min, 100 µL/min
Conditions: column: Zorbax Extend-C18 2.1 x 50 mm; eluents: water / acetonitrile, 0.1% formic acid
Outline: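 Using water and acetonitrile that each contained 0.1% formic acid, mixtures of ~100 pure standards were separated at 100 μL/min on a Zorbax Extend-C18 column (2.1 × 50 mm, 1.8 μm). The HPLC fed a quadrupole time-of-flight mass spectrometer working in positive and negative ionization mode, with dead and dwell volumes of 40 μL and 900 μL. Data were acquired over 3 months. Retention time was read from computationally picked adduct peaks after manual inspection of each.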
An RP-LC retention time of 719 s was found for CN1C(=O)C(F)=C[C@]2(C)[C@H]3CC[C@]4(C)[C@@H](C(=O)NCc5nc6ncccc6[nH]5)CC[C@H]4[C@@H]3CC[C@@H]12 in this work.
An RP-LC retention time of 761 s was found for CCC(CO)Nc1ncnc2c1cnn2-c1ccc(C)c(Cl)c1 (centres undefined) in this work.
An RP-LC retention time of 1230 s was found for CCCCN(CC)S(=O)(=O)c1ccc(C(=O)Nc2nc3c(s2)COc2ccccc2-3)cc1 in this work.
An RP-LC retention time of 738 s was found for COc1cc(C2CN(C(=O)c3ccc4c(c3)OCO4)CC2C(=O)NCCC(C)C)cc(OC)c1OC (centres undefined) in this work.
An RP-LC retention time of 694 s was found for COc1cc(OC)cc(C(=O)N2CCN=C2N2CCC(C)CC2)c1 in this work.
An RP-LC retention time of 663 s was found for N#Cc1c(NC(=O)C2Cc3ccccc3C(=O)O2)sc2c1CCCC2 (centres undefined) in this work.
An RP-LC retention time of 806 s was found for Cc1ccc(CNC(=O)C2CCCN(C(=O)Cc3cccc4ccccc34)C2)o1 (centres undefined) in this work.
An RP-LC retention time of 997 s was found for CN(CC1(C)CCOCC1)S(=O)(=O)c1ccc(C(F)(F)F)cc1 in this work.
An RP-LC retention time of 878 s was found for O=S(=O)(NCC(c1ccccc1)S(=O)(=O)c1cccs1)c1cccs1 (centres undefined) in this work.
An RP-LC retention time of 716 s was found for O=C(COc1ccccc1F)NCCS(=O)(=O)N1CCN(c2ncccn2)CC1 in this work.
An RP-LC retention time of 800 s was found for CCn1c(=O)c(C(=O)NCc2ccccc2OC)nc2cccnc21 in this work.
An RP-LC retention time of 778 s was found for CC(=O)c1sc(Nc2nc3cc4c(cc3s2)OCO4)nc1C in this work.
An RP-LC retention time of 1040 s was found for O=C(COc1ccc(Cl)cc1)Nc1nc(-c2ccc(S(=O)(=O)N3CCOCC3)cc2)cs1 in this work.
An RP-LC retention time of 830 s was found for CCOc1cc(-c2cccc(Cl)c2)nc2ccc(NC(=O)c3ccco3)cc12 in this work.
An RP-LC retention time of 863 s was found for CC(C)NC(=O)Nc1cccnc1N1CCOCC1 in this work.
An RP-LC retention time of 829 s was found for O=C(N[C@H]1C[C@@H]2C[C@H]1N(C(=O)COc1cccc(Cl)c1)C2)c1ccccc1 in this work.
An RP-LC retention time of 1040 s was found for COc1ccc(-c2nc(C3CC(=O)N(c4ccc(C)cc4)C3)no2)c(OC)n1 (centres undefined) in this work.
An RP-LC retention time of 614 s was found for CN1C(C)(C)CCCC1(C)C in this work.
An RP-LC retention time of 861 s was found for CCN(CC)C(=O)Cn1nc(-c2nc(-c3ccc(F)cc3)no2)ccc1=O in this work.
An RP-LC retention time of 640 s was found for CCCCN(CCCNC(=O)C1CCN(S(=O)(=O)N2CCOCC2)CC1)Cc1ccccc1 in this work.
An RP-LC retention time of 904 s was found for CSc1ncccc1C(=O)N(Cc1cccs1)Cc1cccn1C in this work.
An RP-LC retention time of 710 s was found for Cc1noc(C2CN(C(=O)c3ccc(F)c(F)c3)CC23CCOCC3)n1 (centres undefined) in this work.
An RP-LC retention time of 714 s was found for Cc1csc(-c2cc(S(=O)(=O)N3CCN(C4CCCCC4)CC3)c(C)s2)n1 in this work.
An RP-LC retention time of 681 s was found for Cc1nc(-c2cccnc2)nc2c1CCC(=O)N2Cc1ccco1 in this work.
An RP-LC retention time of 963 s was found for O=c1ccn(-c2ccc(Cl)cc2)nc1-c1nc(-c2ccccc2Cl)no1 in this work.
An RP-LC retention time of 824 s was found for CCOC(=O)C1CCCN(c2nc(Nc3ccc(F)cc3)c3n[nH]nc3n2)C1 (centres undefined) in this work.
An RP-LC retention time of 651 s was found for O=C(Cc1nnc(-c2cccc(F)c2)o1)N1CCOCC1 in this work.
An RP-LC retention time of 604 s was found for CCN1C(=O)c2cc(C(=O)N3CCC(N4CCCCC4)CC3)nn2CC1(C)C(=O)NC1CCCC1 (centres undefined) in this work.
An RP-LC retention time of 712 s was found for Cc1cnc(-c2ccccc2)n1C1CCCN(S(=O)(=O)c2ccc3c(c2)OCCO3)C1 (centres undefined) in this work.
An RP-LC retention time of 816 s was found for COCCN1C(=O)CCc2cc(NS(=O)(=O)c3ccc(C)cc3C)ccc21 in this work.
An RP-LC retention time of 1040 s was found for O=S(=O)(c1cccc(-c2nnc(-c3ccccc3Br)o2)c1)N1CCCC1 in this work.
An RP-LC retention time of 710 s was found for CCc1nnc2ccc(NC(=O)Nc3ccc(C)cc3)cn12 in this work.
An RP-LC retention time of 690 s was found for COc1ccc(-c2cnn3c(C)cc(C)nc23)cc1S(=O)(=O)N1CCN(C2CCCCC2)CC1 in this work.
An RP-LC retention time of 755 s was found for CCOc1ccc(NC(=O)Cn2c(C)nc3onc(C)c3c2=O)cc1 in this work.
An RP-LC retention time of 1010 s was found for COc1ccc(-c2cc3c(=O)n(Cc4cc(C)ccc4C)ccn3n2)cc1OC in this work.
An RP-LC retention time of 1040 s was found for CCc1ccc(NC(=O)N2CCCC(C)(C(=O)NCc3ccccc3C)C2)cc1 (centres undefined) in this work.
An RP-LC retention time of 590 s was found for CCOC(=O)CCNC(=O)N1CCN(Cc2nc3cccnc3n2-c2ccccc2)CC1 in this work.
An RP-LC retention time of 541 s was found for COc1cc(CN2CCC3(CC2)CC(O)CCO3)ccc1F (centres undefined) in this work.
An RP-LC retention time of 815 s was found for Cc1cccc(CC(=O)N2C[C@@H]3C[C@H]2C[C@@H]3NS(=O)(=O)c2cccs2)c1 in this work.
An RP-LC retention time of 718 s was found for COc1ccc(CCNC(=O)Nc2nnc(SC)s2)cc1 in this work.
An RP-LC retention time of 639 s was found for Cc1ccc(N2CCN(Cc3nc4nc(C)cc(N5CCCC5)n4n3)CC2)cc1 in this work.
An RP-LC retention time of 875 s was found for O=c1cc(-c2cc3c(ccc4ccccc43)oc2=O)c2ccc(O)cc2o1 in this work.
An RP-LC retention time of 726 s was found for CCOc1cc(=O)n2c(c1C(=O)Nc1ccc(F)cc1F)CCCC2 in this work.
An RP-LC retention time of 662 s was found for CC(=O)N1CCc2cc(-c3ccc(C(=O)N4CCN(C(=O)c5ccco5)CC4)cc3)ccc21 in this work.
An RP-LC retention time of 767 s was found for CCC(=O)N1CCc2cc(C)c(S(=O)(=O)NC3CC3)cc21 in this work.
An RP-LC retention time of 837 s was found for O=C(c1c(OCC2CC2)cc(=O)n2c1CCCCC2)N1CCc2ccccc2C1 in this work.
An RP-LC retention time of 705 s was found for COc1cc(-c2nc3ncccn3c2NC2CCCC2)cc(OC)c1OC in this work.
An RP-LC retention time of 1180 s was found for Cc1ccc(-c2nc(Nc3ccc(Cl)cc3Cl)sc2CC(=O)O)cc1 in this work.
An RP-LC retention time of 719 s was found for Cc1cc(C)n2nc(SCC(=O)NCCc3ccc(Cl)cc3)nc2n1 in this work.
An RP-LC retention time of 918 s was found for CCOc1ccc(-c2cn3ccn(-c4ccc(F)c(Cl)c4)c(=O)c3n2)cc1 in this work.
An RP-LC retention time of 626 s was found for Cc1cnc(-c2ccncc2)n1C1CCN(C(=O)C2(C)CCCCC2)C1 (centres undefined) in this work.
An RP-LC retention time of 989 s was found for CCOC(=O)Cc1sc(Nc2nc(C)cc(C)n2)nc1-c1ccccc1 in this work.
An RP-LC retention time of 1010 s was found for Cc1nc(-c2csc(S(=O)(=O)N3CCC(C(=O)Nc4ccc(F)c(Cl)c4)CC3)c2)no1 in this work.
An RP-LC retention time of 943 s was found for Cc1ccc(C)c(NC(=O)c2cnc(-c3ccc(F)cc3)nc2-c2ccncc2)c1 in this work.
An RP-LC retention time of 681 s was found for CCN1C(=O)c2cccnc2Sc2cc(CNC(=O)c3sc(C)nc3C)ccc21 in this work.
An RP-LC retention time of 845 s was found for Cc1ccc2[nH]c(C(=O)NC3CCN(C)CC3)cc2c1 in this work.
An RP-LC retention time of 650 s was found for Cc1ccc2nc(C(=O)N3CCN(c4ccc(F)cc4)CC3)cn2c1 in this work.
An RP-LC retention time of 649 s was found for CCc1nnc2cc(N3CCN(C(=O)Nc4ccc(C)cc4)CC3)cnn12 in this work.
An RP-LC retention time of 685 s was found for COc1ccc(NC(=O)N2CC(N(C3CCOCC3)S(C)(=O)=O)C2)cc1F in this work.
An RP-LC retention time of 530 s was found for CN1CCN(S(=O)(=O)c2ccc(F)c(Cl)c2)CC1 in this work.
An RP-LC retention time of 1250 s was found for Cc1ccc(C)c(N2CCN(S(=O)(=O)c3ccc(-c4c(C)noc4C)cc3)CC2)c1 in this work.
An RP-LC retention time of 648 s was found for Fc1ccc(Cl)cc1-c1nc(Nc2ccncc2)c2nccnc2n1 in this work.
An RP-LC retention time of 617 s was found for CC(C)c1nncn1C1CCN(C(=O)c2cc(-c3cccs3)[nH]n2)C1 (centres undefined) in this work.
An RP-LC retention time of 1100 s was found for CCOC(=O)CCC(=O)N1CCC(Oc2nc3c(C)ccc(C)c3s2)CC1 in this work.
An RP-LC retention time of 753 s was found for O=C(Nc1ccc(C2(C(=O)NCC3CCCO3)CC2)cc1)c1cccs1 (centres undefined) in this work.
An RP-LC retention time of 759 s was found for CSc1ccc(Cl)c(C(=O)Nc2cccn3c(C)nnc23)c1 in this work.
An RP-LC retention time of 907 s was found for CCN(C(=O)Cc1c(C(=O)O)c(C)cn1CC)c1ccccc1 in this work.
An RP-LC retention time of 628 s was found for CCCn1c(=O)sc2cc(S(=O)(=O)N3CCC(C(=O)N4CCN(C)CC4)CC3)ccc21 in this work.
An RP-LC retention time of 754 s was found for CCc1nc(N2CCC(C(=O)NCc3ccccc3C(F)(F)F)CC2)c2c(C)scc2n1 in this work.
An RP-LC retention time of 722 s was found for CCCNC(=O)c1ncn2c1C(=O)N(C1CC1)C(C)(C(=O)NCc1ccccc1Cl)C2 (centres undefined) in this work.
An RP-LC retention time of 654 s was found for Cc1nnc(NC(=O)CSc2nnc(-c3cccs3)o2)s1 in this work.
An RP-LC retention time of 863 s was found for Cc1ccc(CNC(=O)c2nnc(-c3ccc(S(=O)(=O)N4CCOCC4)cc3)o2)cc1 in this work.
An RP-LC retention time of 829 s was found for O=C(c1ccc(OCC2CCCN2C(=O)c2ccc(F)cc2)cc1)N1CCCC1 (centres undefined) in this work.
An RP-LC retention time of 756 s was found for COc1ccc(NC(=O)CSc2nc(N3CCCCC3)nc3ccccc23)cc1Cl in this work.
An RP-LC retention time of 794 s was found for O=C(CCCn1nnc2ccccc2c1=O)Nc1ccc(F)c(Cl)c1 in this work.
An RP-LC retention time of 869 s was found for CC(C)NC(=O)c1ccc(OCC2CCCN(C(=O)c3ccc(F)c(F)c3)C2)cc1 (centres undefined) in this work.
An RP-LC retention time of 722 s was found for CCc1noc(COC2CCCN(C(=O)NCc3ccco3)C2)n1 (centres undefined) in this work.
An RP-LC retention time of 780 s was found for COc1ccc(CCN2C(=O)CC(N3CCN(c4ccccc4)CC3)C2=O)cc1OC (centres undefined) in this work.
An RP-LC retention time of 722 s was found for CCC(=O)N1CCc2cc(N3CC(C(=O)NCc4ccccc4F)CC3=O)ccc21 (centres undefined) in this work.
An RP-LC retention time of 1010 s was found for Cc1ccccc1-c1nnc(COc2ccc(NC(=O)c3sccc3C)cc2)o1 in this work.
An RP-LC retention time of 857 s was found for Cc1cc(C(=O)Nc2ccc(-c3nc4ccccc4o3)cc2)no1 in this work.
An RP-LC retention time of 584 s was found for COC(=O)c1c(C)[nH]c(C(=O)N2CCC(CC(=O)NCCN3CCCCC3)CC2)c1C in this work.
An RP-LC retention time of 907 s was found for COc1cc(OC)cc(-c2nnc(Cc3nc(-c4ccccc4F)no3)o2)c1 in this work.
An RP-LC retention time of 674 s was found for CN(C)CCNC(=O)c1cc2cc(S(=O)(=O)N(C)C)ccc2n1Cc1ccccc1 in this work.
An RP-LC retention time of 709 s was found for Cc1ccc(S(=O)(=O)N2CCC3(CC2)NCCN=C3NCc2ccc(F)cc2)cc1 in this work.
An RP-LC retention time of 966 s was found for CC1(C(=O)NCc2ccccc2)CCCN(C(=O)Nc2cccc(Cl)c2)C1 (centres undefined) in this work.
An RP-LC retention time of 850 s was found for CCc1nnc(-c2cccnc2N2CCN(C(=O)Nc3cc(F)cc(F)c3)CC2)o1 in this work.
An RP-LC retention time of 874 s was found for CCCn1c(-c2cccc(C(=O)NCc3ccc(SC)cc3)c2)nc2cccnc21 in this work.
An RP-LC retention time of 807 s was found for COc1ccc(NC(=O)c2ccc3[nH]c4c(c3c2)CN(C(=O)C2CCC2)CC4)c(OC)c1 in this work.
